Broadly, the EC50 is the midpoint of the concentration-response curve. Low readings indicate higher potency in that assay, high ones lower potency in that assay.

The test system of data set [1] is SK-BR-3 cancer cell line (human breast cancer cell line). In words: MTT cytotoxicity assay, SK-BR-3 cancer cell line. Format: cell-based. Particulars: for EC50: cancer cell line SKBR3. The source says: (§1) The cytotoxic activity of CBDA methyl esters, CBCA CBGA and THCA was studied by the in vitro MTT colorimetric process (Mosmann, T. et al. J. Immunol. Methods. 1983; 65: 55-63). This method, which is widely used to measure cellular metabolic activity as an indicator of cell viability, division and cytotoxicity, is based on the reduction of a yellow salt of tetrazole ((3-(4,5-dimethylthiazol-2-yl)-2). 5-diphenyltetrazolium bromide or MTT) in violet formazan crystals from metabolically active cells.
(§2) Briefly for this cytotoxicity test, the SK-BR-3 cancer cell line (human breast cancer cell line), the MCF-7 cancer cell line (human breast cancer cell line), and the A2058 cancer cell line […]) and the cancer line SKMEL28 (melanoma line). All cell lines were tested at 20% v/v O2, in the presence of 10% FBS after 48 h or 72 h of incubation.

Data set [2] has as its system A2058 cancer cell line (melanoma). In words: MTT cytotoxicity assay, A2058 cancer cell line. Format: cell-based.
Description: as §1, §2

In a further data set the test system is SKMEL28 (melanoma line). In words: MTT cytotoxicity assay, SKMEL28 cancer line. Format: cell-based.
Description: as §1, §2
For orientation: Formazan colour is commonly taken as a measure of viable cells.

Data set [3] concerns MCF-7 cancer cell line (human breast cancer cell line). In words: MTT cytotoxicity assay, MCF-7 cancer cell line. Particulars: MCF7 cell line. Type of data set: cell-based.
Description: as §1, §2

In data set [4] the test system is breast cancer cells MDA-MB-231. Particulars: cited from earlier work.
The test system of the next data set is cyclooxygenase-2. Particulars: MDA-MB-231; cited from earlier work.
The next data set relates to normal MCF10A cells. In words: Cytotoxic activity in normal MCF10A cells compared to SK-BR-3. Type of data set: cell-based. Particulars: FIG. 3.
Description: FIG. 3. Comparison of the cytotoxic activity of CBDA methyl ester in SK-BR-3 cancer cells compared to the cytotoxic activity in normal MCF10A cells.
as §1

Where [5] appears, read: MTT, incubation time not stated (48 h or 72 h).

On to `CCCCCc1cc(O)c(C/C=C(\C)CCC=C(C)C)c(O)c1C(=O)OC` [CBGA-Me, CBGA methyl ester], for which the “relative cytotoxic activity among the esters” value in data set [1] (SKBR3, 48 h and 72 h (FIGS. 1 and 2)) is “greatest activity”. For the same compound, the “activity compared with the corresponding decarboxylated product” value in data set [1] (SKBR3, 72 h for CBGA methyl ester vs CBG) is “almost twice as active as CBG”. For the same compound, the half-maximal effective concentration (EC50) is 20.2 µM in data set [1] (setting [5]), 17 µM in data set [2], 17 µM with SKMEL28 (melanoma line) and 18 µM in data set [3].

In the case of `CCCCCc1cc2c(c(O)c1C(=O)OC)C1C=C(C)CCC1C(C)(C)O2` (stereo not shown) [THCA-Me, THCA methyl ester], the half-maximal effective concentration (EC50) in data set [1] (setting [5]) turned out to be 36 µM.

For the compound `CCCCCc1cc(O)c(C/C=C(\C)CCC=C(C)C)c(O)c1` [CBG, cannabigerol, reference compound], the 50% effective concentration (EC50) in data set [1] (Homo sapiens, SK-BR-3, 72 h) is 38.8 µM.

For the compound `CCCCCc1cc2c(c(O)c1C(=O)OC)C=CC(C)(CCC=C(C)C)O2` (stereo not shown) [CBCA-Me, CBCA methyl ester], in data set [1] (setting [5]), the concentration for a half-maximal effect (EC50) turned out to be 35 µM.

Consider `C=C(C)[C@@H]1CCC(C)=C[C@H]1c1c(O)cc(CCCCC)c(C(=O)O)c1O` [CBDA, Cannabidiolic acid], for which, in data set [4], the cell migration result was “inhibit cell migration”. The “expression of cyclooxygenase-2” value with cyclooxygenase-2 is on record as “enhance the expression of cyclooxygenase-2”.

`C=C(C)[C@@H]1CCC(C)=C[C@H]1c1c(O)cc(CCCCC)c(C(=O)OC)c1O` [CBDA-Me, CBDA methyl ester]: the EC50 in data set [1] (setting [5]) amounted to 30.6 µM. In the data set on normal MCF10A cells, the “effect on SK-BR-3 cancer cells compared with normal MCF10A cells” value is listed as “much stronger effect on SK-BR-3 cancer cells than normal MCF10A cells”.
